Where “and” joins values, the source holds several entries; their conditions need not be identical. Equal values may be shown once. Toxic doses and inconclusive results are not listed. Rule as the data show it: active = T/C of 150% or more; inactive = T/C below 125%.
System: L1210 leukemia ip in BDF1 mice, survival T/C
Test: NCI In Vivo Anticancer Drug Screen. Data for tumor model L1210 Leukemia (intraperitoneal) in B6D2F1 (BDF1) mice
Conditions: higher = longer survival
Method in brief: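 Read-out is survival time, reported as the treated-group measurement over the vehicle-control measurement.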

[1] = endpoint: mean survival time, dose: 100.0 mg/kg/injection, schedule: Q01DX009 (ip), vehicle: Klucel (hydroxypropylcellulose) (HPC)
[2] = endpoint: mean survival time, dose: 200.0 mg/kg/injection, schedule: Q01DX009 (ip), vehicle: Klucel (hydroxypropylcellulose) (HPC)
[3] = endpoint: mean survival time, dose: 400.0 mg/kg/injection, schedule: Q01DX009 (ip), vehicle: Klucel (hydroxypropylcellulose) (HPC)

Measured: T/C

CC1(C)CC(=O)c2c(OC(=O)N(CCCl)CCCl)cc(OC(=O)N(CCCl)CCCl)cc2O1
inactive: endpoint: mean survival time, dose: 25.0 mg/kg/injection, schedule: Q04DX002 (ip), vehicle: alcohol 94 % of control | endpoint: mean survival time, dose: 50.0 mg/kg/injection, schedule: Q04DX002 (ip), vehicle: alcohol 113 % of control | endpoint: mean survival time, dose: 100.0 mg/kg/injection, schedule: Q04DX002 (ip), vehicle: alcohol 94 % of control | endpoint: mean survival time, dose: 200.0 mg/kg/injection, schedule: Q04DX002 (ip), vehicle: alcohol 97 % of control | endpoint: mean survival time, dose: 400.0 mg/kg/injection, schedule: Q04DX002 (ip), vehicle: alcohol 90 % of control

CC1(C)CCc2c(O)c(N=O)c3ccccc3c2O1
inactive: endpoint: mean survival time, dose: 100.0 mg/kg/injection, schedule: Q01DX001 (ip), vehicle: saline with Tween-80 103 % of control | endpoint: mean survival time, dose: 200.0 mg/kg/injection, schedule: Q01DX001 (ip), vehicle: saline with Tween-80 95 % of control | endpoint: mean survival time, dose: 400.0 mg/kg/injection, schedule: Q01DX001 (ip), vehicle: saline with Tween-80 95 % of control

C[C@H]1CP(c2ccccc2)(c2ccccc2)(c2ccccc2)O[C@@]1(C(=O)c1ccccc1)c1ccccc1
inactive: endpoint: mean survival time, dose: 12.5 mg/kg/injection, schedule: Q04DX003 (ip), vehicle: saline with Tween-80 100 % of control | endpoint: mean survival time, dose: 25.0 mg/kg/injection, schedule: Q04DX003 (ip), vehicle: saline with Tween-80 100 % of control | endpoint: mean survival time, dose: 50.0 mg/kg/injection, schedule: Q04DX003 (ip), vehicle: saline with Tween-80 94 % of control

COc1cccc(NC(=O)c2cccc(C(=O)Nc3cccc(OC)c3)c2)c1
inactive: [1] 94 % of control | [2] 91 % of control | [3] 86 % of control

C1COC(N2CC3CCC(CC3)C2)=N1
inactive: endpoint: mean survival time, dose: 75.0 mg/kg/injection, schedule: Q01DX001 (ip), vehicle: saline 96 % of control | endpoint: mean survival time, dose: 150.0 mg/kg/injection, schedule: Q01DX001 (ip), vehicle: saline 105 % of control

C=CCC(C)/C(C)=C(/C#N)C(=O)OCC (stereo not drawn)
inactive: endpoint: mean survival time, dose: 75.0 mg/kg/injection, schedule: Q01DX001 (ip), vehicle: other 107 % of control | endpoint: mean survival time, dose: 150.0 mg/kg/injection, schedule: Q01DX001 (ip), vehicle: other 100 % of control

CCCCCCCCCCCCOP(=S)(S)OCCCCCCCCCCCC (tested in a mixture with another compound)
inactive: endpoint: mean survival time, dose: 25.0 mg/kg/injection, schedule: Q01DX009 (ip), vehicle: Klucel (hydroxypropylcellulose) (HPC) 94 % of control | endpoint: mean survival time, dose: 25.0 mg/kg/injection, schedule: Q04DX002 (ip), vehicle: Klucel (hydroxypropylcellulose) (HPC) 87 % of control | endpoint: mean survival time, dose: 50.0 mg/kg/injection, schedule: Q01DX009 (ip), vehicle: Klucel (hydroxypropylcellulose) (HPC) 91 % of control | endpoint: mean survival time, dose: 50.0 mg/kg/injection, schedule: Q04DX002 (ip), vehicle: Klucel (hydroxypropylcellulose) (HPC) 90 % of control | endpoint: mean survival time, dose: 100.0 mg/kg/injection, schedule: Q04DX002 (ip), vehicle: Klucel (hydroxypropylcellulose) (HPC) 99 % of control and 100 % of control

CNCC(=O)NC(CO)C(=O)NC1C(C(N)=O)OC(n2ccc(N)nc2=O)C(O)C1O (stereo not drawn)
inactive: endpoint: median survival time, dose: 0.75 mg/kg/injection, schedule: Q04DX003 (ip), vehicle: saline 96 % of control | endpoint: median survival time, dose: 1.5 mg/kg/injection, schedule: Q04DX003 (ip), vehicle: saline 101 % of control | endpoint: median survival time, dose: 3.0 mg/kg/injection, schedule: Q04DX003 (ip), vehicle: saline 94 % of control

O=C(CC1=CCCCC1)c1ccccc1
inactive: [1] 103 % of control | [2] 100 % of control | [3] 97 % of control

Nc1ncnc2c1ncn2C1OC(COP(=O)(O)O)C(O)C1OCc1ccccc1 (stereo not drawn)
inactive: endpoint: mean survival time, dose: 100.0 mg/kg/injection, schedule: Q01DX005 (ip), vehicle: saline 112 % of control | endpoint: mean survival time, dose: 200.0 mg/kg/injection, schedule: Q01DX005 (ip), vehicle: saline 95 % of control

N#C/C(=C\c1ccc(Cl)cc1)c1ccccc1
inactive: endpoint: mean survival time, dose: 100.0 mg/kg/injection, schedule: Q04DX003 (ip), vehicle: gum acacia 100 % of control | endpoint: mean survival time, dose: 200.0 mg/kg/injection, schedule: Q04DX003 (ip), vehicle: gum acacia 102 % of control | endpoint: mean survival time, dose: 400.0 mg/kg/injection, schedule: Q04DX003 (ip), vehicle: gum acacia 109 % of control

[Cl][Pt][Cl].c1ccc([PH+](c2ccccc2)C2CCCCC2)cc1.c1ccc([PH+](c2ccccc2)C2CCCCC2)cc1
inactive: endpoint: mean survival time, dose: 6.25 mg/kg/injection, schedule: Q04DX003 (ip), vehicle: water 96 % of control | endpoint: mean survival time, dose: 12.5 mg/kg/injection, schedule: Q04DX003 (ip), vehicle: water 98 % of control | endpoint: mean survival time, dose: 25.0 mg/kg/injection, schedule: Q04DX003 (ip), vehicle: water 96 % of control | endpoint: mean survival time, dose: 50.0 mg/kg/injection, schedule: Q04DX003 (ip), vehicle: water 98 % of control

CCc1nc2nnnn2c(CC)c1-c1ccccc1O
inactive: endpoint: mean survival time, dose: 100.0 mg/kg/injection, schedule: Q04DX002 (ip), vehicle: saline with Tween-80 98 % of control | endpoint: mean survival time, dose: 200.0 mg/kg/injection, schedule: Q04DX002 (ip), vehicle: saline with Tween-80 104 % of control | endpoint: mean survival time, dose: 400.0 mg/kg/injection, schedule: Q04DX002 (ip), vehicle: saline with Tween-80 88 % of control

CCCCCCCCCC(=O)c1nc(N)nc(N)n1
inactive: endpoint: mean survival time, dose: 50.0 mg/kg/injection, schedule: Q01DX009 (ip), vehicle: saline with Tween-80 105 % of control | endpoint: mean survival time, dose: 100.0 mg/kg/injection, schedule: Q01DX009 (ip), vehicle: saline with Tween-80 105 % of control | endpoint: mean survival time, dose: 200.0 mg/kg/injection, schedule: Q01DX009 (ip), vehicle: saline with Tween-80 97 % of control

COc1cc2cc3c4cc(OC)c(OC)cc4cc[n+]3c(/C=C/c3cc([N+](=O)[O-])ccc3O)c2cc1OC
inactive: endpoint: mean survival time, dose: 100.0 mg/kg/injection, schedule: Q01DX001 (ip), vehicle: other 97 % of control and 100 % of control | endpoint: mean survival time, dose: 100.0 mg/kg/injection, schedule: Q04DX002 (ip), vehicle: other 112 % of control and 92 % of control | endpoint: mean survival time, dose: 100.0 mg/kg/injection, schedule: Q04DX003 (ip), vehicle: other 106 % of control | endpoint: mean survival time, dose: 200.0 mg/kg/injection, schedule: Q01DX001 (ip), vehicle: other 97 % of control and 103 % of control | endpoint: mean survival time, dose: 200.0 mg/kg/injection, schedule: Q04DX002 (ip), vehicle: other 95 % of control and 88 % of control | endpoint: mean survival time, dose: 200.0 mg/kg/injection, schedule: Q04DX003 (ip), vehicle: other 106 % of control | endpoint: mean survival time, dose: 400.0 mg/kg/injection, schedule: Q01DX001 (ip), vehicle: other 96 % of control and 107 % of control | endpoint: mean survival time, dose: 400.0 mg/kg/injection, schedule: Q04DX002 (ip), vehicle: other 94 % of control and 98 % of control | endpoint: mean survival time, dose: 400.0 mg/kg/injection, schedule: Q04DX003 (ip), vehicle: other 101 % of control

O=c1ssc(Cl)c1Cl
inactive: endpoint: mean survival time, dose: 9.5 mg/kg/injection, schedule: Q01DX001 (ip), vehicle: other 94 % of control | endpoint: mean survival time, dose: 10.0 mg/kg/injection, schedule: Q04DX003 (ip), vehicle: other 97 % of control | endpoint: mean survival time, dose: 19.0 mg/kg/injection, schedule: Q01DX001 (ip), vehicle: other 103 % of control | endpoint: mean survival time, dose: 20.0 mg/kg/injection, schedule: Q04DX003 (ip), vehicle: other 107 % of control | endpoint: mean survival time, dose: 38.0 mg/kg/injection, schedule: Q01DX001 (ip), vehicle: other 87 % of control | endpoint: mean survival time, dose: 40.0 mg/kg/injection, schedule: Q04DX003 (ip), vehicle: other 88 % of control

COc1cccc(C(N)C(=O)O)c1 (stereo not drawn)
inactive: endpoint: mean survival time, dose: 50.0 mg/kg/injection, schedule: Q01DX001 (ip), vehicle: saline 94 % of control | endpoint: mean survival time, dose: 100.0 mg/kg/injection, schedule: Q01DX001 (ip), vehicle: saline 100 % of control | endpoint: mean survival time, dose: 200.0 mg/kg/injection, schedule: Q01DX001 (ip), vehicle: saline 105 % of control | endpoint: mean survival time, dose: 400.0 mg/kg/injection, schedule: Q01DX001 (ip), vehicle: saline 97 % of control
